Test results taken from US20030232994A1, “Bicyclic thiophene derivatives and combinatorial libraries thereof” (priority 2001, published 2003).

System: Streptococcus pyogenes (ATCC# 97-03 14289)
Test: Anti-microbial screen (growth inhibition, OD 570 nm)
Type: cell-based
Details: growth in Todd Hewitt Broth, plates read at 570 nm at 0 time and 4 hours, color corrected
Experimental: Streptococcus pyogenes (ATCC# 97-03 14289) was grown in Todd Hewitt Broth (THB) (Difco Laboratories #0492-17-6) overnight until reaching an optical density of (OD=0.636 @ 570 nm) by reading 0.1 ml in a 96 well microtiter plate in a Molecular Devices Thermomax. This preparation was kept frozen as stocks in 30% v/v glycerol in 1.5 ml aliquots at −70^mC. until use. Prior to experiments, […] aliquots were thawed and diluted into 50 ml 2×THB. 60 ul of this dilution was added to 92 wells of microtiter plate. To three wells THB (200 ul) was added to serve as a blank and a sterility control. Test compounds in DMSO and appropriate concentrations of DMSO were added to Growth/Solvent Controls at 0 time. Plates were read at 0 time at 570 nm in the Molecular Devices plate reader to obtain compounds correction factors for insoluble or colored compounds. Plates were read again at 4 hours.
Percent inhibition is calculated with the following formulae: [drawing 4]
Color correct=O.D. 0 hr−Blank 0 hr)−(Solvent Control 0 hr−Blank 0 hr)
% Inhibition=100−O.D. test compound 4 hr−Blank 4 hr−color correct O.D. growth/solvent control 4 hr−Blank 4 hr

Compound | % Inhibition
CC(C)(C)c1ccc(C(=O)Nc2sc3c(c2C(=O)O)CCN(C(=O)C2CCC2)C3)cc1 | 98.89%
CCCSc1ncccc1C(=O)N1CCc2c(sc(NC(=O)c3ccccc3Cl)c2C(=O)O)C1 | 94.82%
O=C(Nc1sc2c(c1C(=O)O)CCN(C(=O)c1ccoc1)C2)c1ccccc1 | 94.53%
O=C(Nc1sc2c(c1C(=O)O)CCN(C(=O)CCc1ccc(F)c(F)c1)C2)c1ccccc1Cl | 94.52%
O=C(Nc1sc2c(c1C(=O)O)CCN(C(=O)c1ccsc1)C2)c1ccccc1 | 93.59%
O=C(Nc1sc2c(c1C(=O)O)CCN(C(=O)/C=C/c1ccc(Cl)cc1)C2)c1ccccc1 | 93.13%
CCC(C(=O)Nc1sc2c(c1C(=O)O)CCN(C(=O)c1ccccc1SC)C2)c1ccccc1 (stereo not shown) | 68.58%
CC(C)(C)c1ccc(C(=O)Nc2sc3c(c2C(=O)O)CCN(C(=O)c2ccc(Cl)cc2)C3)cc1 | 68.41%
COc1ccc(OC)c(C(=O)N2CCc3c(sc(NC(=O)CC(C)CC(C)(C)C)c3C(=O)O)C2)c1 (stereo not shown) | 68.17%
O=C(Nc1sc2c(c1C(=O)O)CCN(C(=O)C1CCC1)C2)c1ccc(Cl)cc1 | 67.98%
CCOc1ncccc1C(=O)N1CCc2c(sc(NC(=O)c3ccc(CC)cc3)c2C(=O)O)C1 | 67.76%
O=C(CCC1CCCC1)Nc1sc2c(c1C(=O)O)CCN(C(=O)/C=C/c1ccc(Cl)cc1)C2 | 67.51%
O=C(O)c1c(NC(=O)C2CCCCC2)sc2c1CCN(C(=O)/C=C/c1ccc(Cl)cc1)C2 | 67.5%
O=C(Nc1sc2c(c1C(=O)O)CCN(C(=O)c1cc3ccccc3s1)C2)c1ccccc1 | 67.5%
CCCc1ccc(C(=O)Nc2sc3c(c2C(=O)O)CCN(C(=O)c2ccc(Cl)cc2OC)C3)cc1 | 67.49%
CCc1ccc(C(=O)Nc2sc3c(c2C(=O)O)CCN(C(=O)c2cccc4ccccc24)C3)cc1 | 67.43%
Cc1ccc(C)c(CC(=O)N2CCc3c(sc(NC(=O)c4ccc5ccccc5c4)c3C(=O)O)C2)c1 | 67.34%
CSc1ccccc1C(=O)N1CCc2c(sc(NC(=O)c3ccccc3Cl)c2C(=O)O)C1 | 67.09%
O=C(Nc1sc2c(c1C(=O)O)CCN(C(=O)c1ccccc1C(F)(F)F)C2)c1ccc(Cl)cc1 | 67.09%
CCCSc1ncccc1C(=O)N1CCc2c(sc(NC(=O)c3ccc4ccccc4c3)c2C(=O)O)C1 | 67.03%
CCCc1ccc(C(=O)Nc2sc3c(c2C(=O)O)CCN(C(=O)C2CCCCC2)C3)cc1 | 66.83%

Compound | % Inhibition
CCCSc1ncccc1C(=O)N1CCc2c(sc(NC(=O)c3ccc(Cl)cc3)c2C(=O)O)C1 | 66.79%
O=C(O)c1c(NC(=O)C2CCCCC2)sc2c1CCN(C(=O)CCc1ccc(F)c(F)c1)C2 | 66.79%
CCC(C(=O)Nc1sc2c(c1C(=O)O)CCN(C(=O)c1cc3ccccc3s1)C2)c1ccccc1 (stereo not shown) | 66.79%
O=C(Nc1sc2c(c1C(=O)O)CCN(C(=O)c1ccsc1)C2)c1ccco1 | 66.72%
O=C(Nc1sc2c(c1C(=O)O)CCN(C(=O)c1ccc(F)cc1F)C2)c1ccc2ccccc2c1 | 66.41%
O=C(CCC1CCCC1)Nc1sc2c(c1C(=O)O)CCN(C(=O)c1ccc(Cl)cc1)C2 | 66.09%
O=C(Nc1sc2c(c1C(=O)O)CCN(C(=O)c1cccc3ccccc13)C2)c1ccccc1Cl | 65.9%
CC(C)C(=O)N1CCc2c(sc(NC(=O)c3ccc4ccccc4c3)c2C(=O)O)C1 | 65.78%
O=C(Nc1sc2c(c1C(=O)O)CCN(C(=O)CC1CCCC1)C2)c1ccco1 | 65.78%
CCCCOc1ccc(C(=O)Nc2sc3c(c2C(=O)O)CCN(C(=O)CC)C3)cc1 | 65.64%
O=C(CCC1CCCC1)Nc1sc2c(c1C(=O)O)CCN(C(=O)C1CCCCC1)C2 | 65.37%
CCc1ccc(C(=O)Nc2sc3c(c2C(=O)O)CCN(C(=O)C2CCC2)C3)cc1 | 65.14%
Cn1cc(C(=O)N2CCc3c(sc(NC(=O)CCC4CCCC4)c3C(=O)O)C2)c2ccccc21 | 65.02%
O=C(O)c1c(NC(=O)[C@]23C[C@H]4C[C@@H](C[C@H](C4)C2)C3)sc2c1CCN(C(=O)c1ccccc1C(F)(F)F)C2 | 64.79%
O=C(Nc1sc2c(c1C(=O)O)CCN(C(=O)c1ccc(F)cc1F)C2)c1ccccc1Cl | 64.7%
COc1cccc(C(=O)N2CCc3c(sc(NC(=O)c4ccc5ccccc5c4)c3C(=O)O)C2)c1OC | 64.54%
CSc1ncccc1C(=O)N1CCc2c(sc(NC(=O)c3ccc4ccccc4c3)c2C(=O)O)C1 | 64.54%
CCCc1ccc(C(=O)Nc2sc3c(c2C(=O)O)CCN(C(=O)c2ccccc2C(F)(F)F)C3)cc1 | 64.51%
COc1cccc(C(=O)Nc2sc3c(c2C(=O)O)CCN(C(=O)c2ccccc2SC)C3)c1 | 64.5%
CC(C)CC(=O)N1CCc2c(sc(NC(=O)c3ccc(C(C)(C)C)cc3)c2C(=O)O)C1 | 64.48%
CSc1ccccc1C(=O)N1CCc2c(sc(NC(=O)c3ccc(C(C)(C)C)cc3)c2C(=O)O)C1 | 64.48%

Compound | % Inhibition
Cc1ccc(C(=O)N2CCc3c(sc(NC(=O)c4ccc(Cl)cc4)c3C(=O)O)C2)cn1 | 64.41%
O=C(Nc1sc2c(c1C(=O)O)CCN(C(=O)c1ccc(C(F)(F)F)cc1)C2)c1ccccc1Cl | 64.41%
CCCc1ccc(C(=O)Nc2sc3c(c2C(=O)O)CCN(C(=O)c2ccc(Cl)cc2)C3)cc1 | 64.18%
Cc1c(F)cccc1C(=O)N1CCc2c(sc(NC(=O)C3CCCCC3)c2C(=O)O)C1 | 63.92%
CCc1ccc(C(=O)Nc2sc3c(c2C(=O)O)CCN(C(=O)c2cccnc2SC)C3)cc1 | 63.83%
COc1cccc(C(=O)Nc2sc3c(c2C(=O)O)CCN(C(=O)c2cc4ccccc4s2)C3)c1 | 63.77%
O=C(Nc1sc2c(c1C(=O)O)CCN(C(=O)c1ccccc1Cl)C2)c1ccc2ccccc2c1 | 63.6%
Cc1ccc(C(=O)N2CCc3c(sc(NC(=O)c4ccc(Cl)cc4)c3C(=O)O)C2)c(C)c1 | 63.51%
CCc1ccc(C(=O)Nc2sc3c(c2C(=O)O)CCN(C(=O)C2CCCCC2)C3)cc1 | 63.5%
CC(CC(=O)Nc1sc2c(c1C(=O)O)CCN(C(=O)c1ccc(Cl)cc1)C2)CC(C)(C)C (stereo not shown) | 63.48%
COc1ccccc1C(=O)Nc1sc2c(c1C(=O)O)CCN(C(=O)c1cccc(F)c1C)C2 | 63.41%
O=C(Nc1sc2c(c1C(=O)O)CCN(C(=O)c1ccc(C(F)(F)F)cc1)C2)c1ccc2ccccc2c1 | 63.29%
CCc1ccc(C(=O)Nc2sc3c(c2C(=O)O)CCN(C(=O)c2ccc(C(F)(F)F)cc2)C3)cc1 | 63.17%
CCC(=O)N1CCc2c(sc(NC(=O)c3ccc4ccccc4c3)c2C(=O)O)C1 | 62.98%
O=C(Nc1sc2c(c1C(=O)O)CCN(C(=O)c1ccccc1Cl)C2)c1ccc(Cl)cc1 | 62.91%
CCc1ccc(C(=O)Nc2sc3c(c2C(=O)O)CCN(C(=O)c2ccc(Cl)cc2OC)C3)cc1 | 62.84%
Cc1ccc(C(=O)N2CCc3c(sc(NC(=O)c4ccc5ccccc5c4)c3C(=O)O)C2)cn1 | 62.67%
Cc1c(F)cccc1C(=O)N1CCc2c(sc(NC(=O)c3ccccc3Cl)c2C(=O)O)C1 | 62.62%
CCC(C(=O)Nc1sc2c(c1C(=O)O)CCN(C(=O)c1cccc3ccccc13)C2)c1ccccc1 (stereo not shown) | 62.49%
